The record followed here is patent US10519153B2, “Fused imidazo-piperidine JAK inhibitors” (THERAVANCE BIOPHARMA R&D IP, LLC, priority 2017, dated 2019).

The experiment concerns IL-6 stimulated pSTAT3 in CD3+ T cells. The experiment is described as follows: Inhibition of IL-6 stimulated pSTAT3 in CD3+ T cells. Type of experiment: cell-based, human. An excerpt: Assay 10: Cellular JAK Potency Assay: Inhibition of IL-6 Stimulated pSTAT3 in CD3+ T Cells
A protocol analogous to that of Assay 9 was used to determine the potency of the test compound for inhibition of interleuken-6 (IL-6) stimulated STAT3 phosphorylation. An Alexa Fluor 647 conjugated anti-pSTAT3 antibody (pY705, Clone 4/P, BD Biosciences) was used to detect STAT3 phosphorylation.

In the case of `CCc1cc(O)c(F)cc1-c1ccc2c(-c3nc4c([nH]3)CN(C(C)C)[C@H](C(=O)N3CC[C@H](N(C)C)C3)C4)n[nH]c2c1` [Example 3], the “inhibition of IL-6 signaling (in words)” value is listed as “inhibit IL-6 signaling”. On to `CCCN1Cc2[nH]c(-c3n[nH]c4cc(-c5cc(F)c(O)cc5CC)ccc34)nc2C[C@H]1C(=O)N1C[C@@H]2C[C@H]1CN2C` [Example 1, ((S)-2-(6-(2-ethyl-5-fluoro-4-hydroxyphenyl)-1H-indazol-3-yl)-5-propyl-4,5,6,7-tetrahydro-3H-imidazo[4,5-c]pyridin-6-yl)((1S,4S)-5-methyl-2,5-diazabicyclo-[2.2.1]heptan-2-yl)methanone], for which the “inhibition of IL-6 signaling (in words)” value was “inhibit IL-6 signaling”.
